Among the data in US9120771B2, “Azetidine derivative and antidepressant composition including the same” (KOREA INSTITUTE OF SCIENCE AND TECHNOLOGY, priority 2011, dated 2015) are IC50, inhibition and melting point values, retold here.

pIC50: −log10 of the molar value.

For orientation: pIC50 means the IC50 on a negative log10 scale, so that one unit is a factor of ten. Lower therefore signals a high IC50. The term inhibition denotes the percentage by which the read-out fell short of the control. As a reminder, the melting point is the temperature of the solid-liquid transition.

The target in data set [1] is T1, human norepinephrine transporter (Homo sapiens (Human), UniProt P23975). The experiment in a line: hNET reuptake assay (HEK-hNET, FDSS6000). In kind it is cell-based. Conditions: HEK-hNET cells; Table 3.
For data set [2], the target named is T2, human serotonin transporter (Homo sapiens (Human), UniProt P31645). The experiment in a line: hSERT binding assay ([3H]Imipramine).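 Further: displacement of radiolabeled imipramine from the transporter, incubated 30 min at 27 °C in Tris-HCl pH 7.4 with NaCl and KCl, bound radioactivity counted after filtration, nonspecific binding defined with 200 uM imipramine.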 Conditions: membrane from HEK293 cells.
The target in data set [3] is T3, human dopamine transporter (Homo sapiens (Human), UniProt Q01959). The experiment in a line: hDAT binding assay ([3H]WIN35,428).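 Further: displacement of the radioligand from the transporter membranes, incubated 120 min at 4 °C in Tris-HCl buffer with NaCl, pH 7.4, measured by filter-bound radioactivity counting.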
Data set [4] concerns the target T2, human serotonin transporter. The experiment in a line: hSERT reuptake assay (HEK-hSERT, FDSS6000). In kind it is cell-based. Conditions: HEK-hSERT cells; Table 3.
Data set [5] concerns the target T1, human norepinephrine transporter. The experiment in a line: hNET binding assay ([3H]Nisoxetine). The procedure: NE transporter binding assay for evaluating binding of the compound to the norepinephrine transporter was carried out using human recombinant norepinephrine transporter membrane (PerkinElmer Life and Analytical Sciences, USA) expressed in MDCK cells and radioisotope [^3H]Nisoxetine (PerkinElmer).
That is, the test drug, 6 nM [^3H]Nisoxetine, norepinephrine transporter membrane (11 ug/well), 120 mM NaCl and 50 mM Tris-HCl buffer (pH 7.4) containing 5 mM KCl were added to obtain a reaction mixture with a final volume of 0.25 ml. After incubation for 60 minutes at 4° C., the mixture was quickly passed through a Filtermat A glass fiber filter pre-soaked with 0.5% (w/v) PEI (polyethyleneimine) using Inotech Harvester (Inotech) to terminate the reaction. After washing with cold washing buffer (50 mM Tris-HCl, pH 7.4, 0.9% NaCl) solution, the filter was covered with MeltiLex and sealed in a sample bag. After drying in an oven, radioactivity was counted using MicroBeta Plus (Wallac).
Non-specific binding was measured in the presence of 1 uM desipramine. The IC50 value of the test drug was calculated from non-linear regression analysis (GraphPad Prism Program, San Diego, USA) of each %-inhibition value obtained from the drug with concentrations of 7th and 8th steps.

In data set [6] the target is T3, human dopamine transporter. The experiment in a line: hDAT reuptake assay (HEK-hDAT, FDSS6000). The format is cell-based. The settings on record: HEK-hDAT cells; Table 3.

T1 sequence (P23975 whole entry): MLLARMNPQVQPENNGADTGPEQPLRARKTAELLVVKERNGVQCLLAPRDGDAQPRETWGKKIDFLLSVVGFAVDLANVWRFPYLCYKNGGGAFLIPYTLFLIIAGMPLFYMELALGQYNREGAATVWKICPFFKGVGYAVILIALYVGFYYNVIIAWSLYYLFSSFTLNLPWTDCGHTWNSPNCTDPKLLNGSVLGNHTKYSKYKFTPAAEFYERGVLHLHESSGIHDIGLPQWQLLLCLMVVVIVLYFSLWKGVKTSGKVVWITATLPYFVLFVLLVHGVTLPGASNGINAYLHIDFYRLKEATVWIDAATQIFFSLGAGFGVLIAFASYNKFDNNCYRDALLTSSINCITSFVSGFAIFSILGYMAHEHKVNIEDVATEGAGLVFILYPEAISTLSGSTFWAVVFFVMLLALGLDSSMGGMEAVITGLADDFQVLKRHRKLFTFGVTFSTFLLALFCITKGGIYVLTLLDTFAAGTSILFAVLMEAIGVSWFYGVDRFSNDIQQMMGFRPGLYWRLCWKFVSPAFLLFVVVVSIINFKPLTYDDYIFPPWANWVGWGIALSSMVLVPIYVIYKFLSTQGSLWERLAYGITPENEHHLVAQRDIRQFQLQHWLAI
T2 sequence (P31645 whole entry): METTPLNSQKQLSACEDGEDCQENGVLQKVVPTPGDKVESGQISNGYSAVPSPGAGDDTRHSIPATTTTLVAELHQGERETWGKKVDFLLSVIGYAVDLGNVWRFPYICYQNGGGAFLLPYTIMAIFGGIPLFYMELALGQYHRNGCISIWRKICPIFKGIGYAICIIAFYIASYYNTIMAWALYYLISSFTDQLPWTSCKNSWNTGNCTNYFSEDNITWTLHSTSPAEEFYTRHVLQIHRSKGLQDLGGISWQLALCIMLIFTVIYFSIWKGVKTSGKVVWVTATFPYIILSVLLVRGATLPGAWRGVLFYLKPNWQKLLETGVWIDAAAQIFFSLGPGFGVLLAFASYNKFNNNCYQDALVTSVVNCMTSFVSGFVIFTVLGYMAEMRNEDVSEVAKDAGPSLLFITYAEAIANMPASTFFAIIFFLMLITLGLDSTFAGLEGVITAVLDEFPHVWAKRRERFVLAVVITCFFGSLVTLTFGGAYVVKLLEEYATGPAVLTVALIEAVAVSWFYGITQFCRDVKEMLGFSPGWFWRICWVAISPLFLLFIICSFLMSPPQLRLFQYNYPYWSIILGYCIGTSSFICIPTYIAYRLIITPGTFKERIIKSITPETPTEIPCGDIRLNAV
T3 sequence (Q01959 whole entry): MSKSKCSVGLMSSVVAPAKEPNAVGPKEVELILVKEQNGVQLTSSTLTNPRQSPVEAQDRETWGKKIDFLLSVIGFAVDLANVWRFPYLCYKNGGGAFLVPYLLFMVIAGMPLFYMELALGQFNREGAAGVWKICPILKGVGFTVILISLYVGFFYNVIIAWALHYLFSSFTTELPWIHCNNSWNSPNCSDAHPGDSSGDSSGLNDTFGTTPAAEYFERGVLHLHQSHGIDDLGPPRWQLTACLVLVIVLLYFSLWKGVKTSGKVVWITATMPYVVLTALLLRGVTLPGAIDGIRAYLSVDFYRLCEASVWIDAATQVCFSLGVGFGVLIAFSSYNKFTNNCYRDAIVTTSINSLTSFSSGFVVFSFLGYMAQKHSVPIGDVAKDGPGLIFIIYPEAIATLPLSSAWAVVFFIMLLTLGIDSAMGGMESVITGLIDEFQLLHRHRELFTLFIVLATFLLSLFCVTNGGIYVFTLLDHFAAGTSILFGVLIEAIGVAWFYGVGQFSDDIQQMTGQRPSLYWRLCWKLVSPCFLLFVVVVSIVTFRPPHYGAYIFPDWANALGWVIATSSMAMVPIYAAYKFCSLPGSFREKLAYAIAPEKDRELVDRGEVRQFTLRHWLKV

Compound `Cc1ccc(OC(c2ccc(Cl)c(Cl)c2)C2CNC2)cc1.Cl` (stereo not shown) [KHG26776, 3-((3,4-dichlorophenyl)(para-tolyloxy)methyl)azetidine hydrochloride] had a melting point of 193 °C. This compound also had a pIC50 in data set [1] of 6.30. In addition, in data set [2] (10 uM, read-out: hSERT binding assay %-inhibition (10 uM)), the inhibition at 10 µM turned out to be 100%. The compound also showed a pIC50 in data set [2] (2 nM [3H]Imipramine) of 8.25. In addition, the pIC50 in data set [3] (membrane from CHO-K1 cells, 8 nM [3H]WIN35,428) is 6.77. Moreover, the inhibition at 10 µM in data set [3] (read-out: hDAT binding assay %-inhibition (10 uM)) is 95%. This compound had a negative logarithm of the IC50 (pIC50) in data set [4] of 6.15. In data set [5], this compound gave a pIC50 of 7.57. Further, in data set [5] (read-out: hNET binding assay %-inhibition (10 uM)), the inhibition at 10 µM came out at 100%. In data set [6], this compound showed a pIC50 of 6.52.
